# Results reported in USRE48461E1, “Modulation of androgen receptor expression” (Ionis Pharmaceuticals, Inc., priority 2012, dated 2021).
# Where two headings read alike, the source gives them in different places. Oligonucleotides are written 5' to 3', each unit as a sugar letter and its base; * is a phosphorothioate linkage, no mark a phosphodiester; rarer units and linkages stand in square brackets, end groups in braces. Plain capitals give the bases only. k = constrained ethyl (cEt); [5mC] = 5-methylcytosine; d = 2'-deoxy (DNA)
# Assays:
# Format in all cases: cell-based, human
# C4-2B cells = experiment: C4-2B cell proliferation, ASO in combination with MDV3100 (Example 19); details: Homo sapiens, PBS (no ASO) + MDV3100 1 μM, read-out: Percent inhibition of C4-2B cell proliferation
# Description: C4-2B cells were plated at 1,500 cells per well. […] ISIS 347526 was included as a negative control. […] After a treatment period of 6 days, the proliferative capacity of the cancer cells was measured with CellTiter 96® AQueous One Solution Cell Proliferation kit (Promega), following the manufacturer's instructions. Results are presented in Table 46 as percent inhibition of proliferation, relative to non-treated cells. Treatment of the cells with ISIS 549372 or ISIS 549458 reduced proliferation of the cells more extensively than treatment with ISIS 554221.
# AR mRNA [1] = experiment: AR RNA expression in LNCaP cells (complete, CSS, CSS+DHT medium); details: for Percent expression of AR in LNCaP cells cultured in CSS + DHT medium: CSS + DHT (1 nM) medium; for Percent expression of AR in LNCaP cells cultured in CSS + DHT medium / Percent expression of AR in LNCaP cells cultured in CSS medium: 48 hrs; for Percent expression of AR in LNCaP cells cultured in complete medium: 48 hours
# Description: Cells were plated at 1,000 cells per well. […] After an incubation period of 48 hours, RNA levels of AR, PSA and TMPRSS2 were measured.
# Cells were plated at 2,000 cells per well and cultured in phenol red-free RPMI supplemented with 5% charcoal stripped serum (Gibco) media for 16 hours. […] After an incubation period of 4 hrs, DHT was added to the medium to a final concentration of 1 nM as indicated. RNAs were collected 48 hrs later and levels of AR, PSA and TMPRSS2 were measured.
# AR V7 variant mRNA = experiment: AR V7 variant RNA in VCaP cells; details: 48 hrs
# Description: Cells were plated at 10,000 cells per well. […] ISIS 549148 was included as a negative control. After an incubation period of 48 hrs, RNA levels of full length AR, the V7 variant, PSA and TMPRSS2 were measured.
# A separate set of cells was treated with MDV-3100 at 0.04 μM, 0.2 μM, 1.0 μM, or 5.0 μM. After an incubation period of 48 hrs, RNA levels of full length AR, the V7 variant, PSA and TMPRSS2 were measured. The data is presented in Tables 108 expressed as percent expression of gene levels compared to the untreated control.
# Cells were plated at 15,000 cells per well and cultured in CSS media for 16 hours. […] ISIS 549148 was included as a negative control. After 4 hrs, 1 nM DHT was added. […] After an incubation period of 48 hrs, RNA levels of AR, PSA and TMPRSS2 were measured. […]
# AR mRNA [2] = experiment: AR mRNA in LnCaP cells by free uptake (hAR_LTS00943); details: 24 hrs
# Description: Cells were plated at a concentration of 4,000 cells/well in 96-well plates. ISIS oligonucleotides, specified in Table 68, were added individually at 0.02 μM, 0.10 μM, 0.50 μM, 2.50 μM, or 10.00 μM. After an incubation period of 24 hrs, mRNA levels were measured using primer probe set hAR_LTS00943.
compound,measurement,setting,value
"CNC(=O)c1ccc(N2C(=S)N(c3ccc(C#N)c(C(F)(F)F)c3)C(=O)C2(C)C)cc1F [MDV3100, 4-(3-(4-cyano-3-(trifluoromethyl)phenyl)-5,5-dimethyl-4-oxo-2-thioxoimidazolidin-1-yl)-2-fluoro-N-methylbenzamide, reference compound]",inhibition at 1 µM,C4-2B cells; Table 46,38%
same,inhibition at 1 µM,C4-2B cells; Table 47,46%
same,Percent expression of AR in LNCaP cells cultured in CSS + DHT medium,AR mRNA [1]; 0.04 μM,107%
same,Percent expression of AR in LNCaP cells cultured in CSS + DHT medium,AR mRNA [1]; 0.2 μM,121%
same,Percent expression of AR in LNCaP cells cultured in CSS + DHT medium,AR mRNA [1]; 1 μM,110%
same,Percent expression of AR in LNCaP cells cultured in CSS + DHT medium,AR mRNA [1]; 5.0 μM,113%
same,Percent expression of AR in LNCaP cells cultured in CSS medium,AR mRNA [1]; 0.04 μM,91%
same,Percent expression of AR in LNCaP cells cultured in CSS medium,AR mRNA [1]; 0.2 μM,67%
same,Percent expression of AR in LNCaP cells cultured in CSS medium,AR mRNA [1]; 1 μM,64%
same,Percent expression of AR in LNCaP cells cultured in CSS medium,AR mRNA [1]; 5.0 μM,77%
same,Percent expression of AR in LNCaP cells cultured in complete medium,AR mRNA [1]; 0.2 μM,133%
same,Percent expression of AR in LNCaP cells cultured in complete medium,AR mRNA [1]; 1 μM,121%
same,Percent expression of AR in LNCaP cells cultured in complete medium,AR mRNA [1]; 5.0 μM,139%
same,"Percent of gene expression, AR V7 variant","AR V7 variant mRNA; CSS + DHT medium, 0.04 μM",82%
same,"Percent of gene expression, AR V7 variant","AR V7 variant mRNA; CSS + DHT medium, 0.2 μM",65%
same,"Percent of gene expression, AR V7 variant","AR V7 variant mRNA; CSS + DHT medium, 1.0 μM",101%
same,"Percent of gene expression, AR V7 variant","AR V7 variant mRNA; CSS + DHT medium, 5.0 μM",181%
same,"Percent of gene expression, AR V7 variant","AR V7 variant mRNA; complete medium, 0.04 μM",172%
same,"Percent of gene expression, AR V7 variant","AR V7 variant mRNA; complete medium, 0.2 μM",179%
same,"Percent of gene expression, AR V7 variant","AR V7 variant mRNA; complete medium, 1.0 μM",244%
same,"Percent of gene expression, AR V7 variant","AR V7 variant mRNA; complete medium, 5.0 μM",237%
549372 (kA*kA*kG*dT*dT*dG*dT*dA*dG*dT*dA*dG*dT*k[5mC]*kG*k[5mC]) [compound 549372],Percent inhibition of AR mRNA,AR mRNA [2]; 0.02 μM,0%
same,Percent inhibition of AR mRNA,AR mRNA [2]; 0.1 μM,0%
same,Percent inhibition of AR mRNA,AR mRNA [2]; 0.5 μM,21%
same,Percent inhibition of AR mRNA,AR mRNA [2]; 10 μM,78%
549458 (kG*kT*kT*dG*dA*dT*dT*dT*dA*dA*dT*dG*dG*kT*kT*kG) [compound 549458],Percent inhibition of AR mRNA,AR mRNA [2]; 0.02 μM,4%
same,Percent inhibition of AR mRNA,AR mRNA [2]; 0.1 μM,14%
same,Percent inhibition of AR mRNA,AR mRNA [2]; 0.5 μM,67%
same,Percent inhibition of AR mRNA,AR mRNA [2]; 10 μM,89%
